# Patent publication US8372617B2, “β-galactoside-α2,6-sialyltransferase, a gene encoding thereof, and a method for enhancing enzyme activity” (Japan Tobacco Inc., priority 2007, dated 2013)
# Where “and” joins values, the source holds several entries; their conditions need not be identical. Equal values may be shown once.
# Tested on: recombinant β-galactoside-α2,6-sialyltransferase N1C0
# Test: Transfer of sialic acid to glycoproteins
# Type: biochemical, Photobacterium leiognathi
# Conditions: enzyme +; 30° C. for 0.5 hours
# Procedure: As a glycosyl acceptor substrate, asialofetuin and asialomucin were each used. Asialofetuin or asialomucin (2 mg) was dissolved in 1 ml of 20 mM Bis-Tris buffer (pH 7.0) and used as a glycosyl acceptor substrate solution. As a glycosyl donor substrate, CMP-NeuAc was used. The glycosyl acceptor substrate solution (40 μl), the glycosyl donor substrate (5 μl) and the enzyme solution (5 μl) were mixed and incubated at 30° C. for 0.5 hours to cause sialic acid transfer reaction. After completion of the reaction, the reaction solution was gel-filtered by being applied to a Sephadex G-50 Superfine (0.8×18.0 cm) equilibrated with 0.1 M sodium chloride. A glycoprotein-containing eluate fraction (2-4 ml fraction) from gel filtration was collected and measured for its radioactivity using a liquid scintillation counter to quantify sialic acid transferred to the glycosyl acceptor substrate.
# Chain of recombinant β-galactoside-α2,6-sialyltransferase N1C0 (as listed by the source): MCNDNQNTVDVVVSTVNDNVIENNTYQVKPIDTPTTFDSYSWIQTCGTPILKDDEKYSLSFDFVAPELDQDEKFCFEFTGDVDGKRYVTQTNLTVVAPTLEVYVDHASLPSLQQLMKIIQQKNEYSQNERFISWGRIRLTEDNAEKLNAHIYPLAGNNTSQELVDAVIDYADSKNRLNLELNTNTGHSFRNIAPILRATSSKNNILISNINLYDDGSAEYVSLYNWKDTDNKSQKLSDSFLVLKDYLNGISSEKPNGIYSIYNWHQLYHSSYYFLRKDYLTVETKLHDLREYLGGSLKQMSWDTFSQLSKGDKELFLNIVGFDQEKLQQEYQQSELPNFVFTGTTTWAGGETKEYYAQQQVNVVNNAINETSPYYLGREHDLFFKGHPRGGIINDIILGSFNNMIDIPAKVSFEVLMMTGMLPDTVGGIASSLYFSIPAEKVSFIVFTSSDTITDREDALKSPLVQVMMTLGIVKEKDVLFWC
substance,measurement,value
Asialofetuin: glycoprotein used as glycosyl acceptor substrate,NeuAc transferred (cpm),2140 cpm and 2038 cpm
